The results in this text go back to patent publication US9387238B2, “CDCA1 epitope peptides and vaccines containing the same” (OncoTherapy Science, Inc., priority 2008, dated 2016).

Assay [1] has as its system peptide-pulsed A24LCL cells. The assay is described as follows: IFN-gamma ELISA assay on CTL lines established with CDCA1 peptides. The assay is classed as cell-based, human. The following applies: CTL line vs peptide-pulsed target cells, compared with target cells not pulsed. The method, then: CTLs were expanded in culture using the method similar to the one described by Riddell et al. (Walter E A et al., N Engl J Med 1995 Oct. 19, 333(16): 1038-44; Riddell S R et al., Nat Med 1996 February, 2(2): 216-23). A total of 5×10^4 CTLs were suspended in 25 ml of AIM-V/5% AS medium with 2 kinds of human B-lymphoblastoid cell lines, inactivated by MMC, in the presence of 40 ng/ml of anti-CD3 monoclonal antibody (Pharmingen). One day after initiating the cultures, 120 IU/ml of IL-2 were added to the cultures. The cultures were fed with fresh AIM-V/5% AS medium containing 30 IU/ml of IL-2 on days 5, 8 and 11 (Tanaka H et al., Br J Cancer 2001 Jan. 5, 84(1): 94-9; Umano Y et al., Br J Cancer 2001 Apr. 20, 84(8): 1052-7; Uchida N et al., Clin Cancer Res 2004 Dec. 15, 10(24): 8577-86; Suda T et al., Cancer Sci 2006 May, 97(5): 411-9; Watanabe T et al., Cancer Sci 2005 August, 96(8): 498-506).
(§1) To examine specific CTL activity, interferon (IFN)-gamma enzyme-linked immunospot (ELISPOT) assay and IFN-gamma enzyme-linked immunosorbent assay (ELISA) were performed. Specifically, peptide-pulsed A24LCL (1×10^4/well) was prepared as stimulator cells. Cultured cells in 48 wells were used as responder cells. IFN-gamma ELISPOT assay and IFN-gamma ELISA assay were performed under manufacture procedure.
(ELISA stands for enzyme-linked immunosorbent assay.)

Assay [2] concerns peptide-pulsed A24LCL cells. Put plainly: IFN-gamma ELISPOT assay on CTLs induced with CDCA1 peptides. As to conditions: CTLs from HLA-A*2402 positive donor vs peptide-pulsed target cells, compared with the control. It is filed as cell-based, human.
Description: Monocyte-derived dendritic cells (DCs) were used as antigen-presenting cells (APCs) to induce cytotoxic T lymphocyte (CTL) responses against peptides presented on human leukocyte antigen (HLA). DCs were generated in vitro as described elsewhere (Nakahara S et al., Cancer Res 2003 Jul. 15, 63(14): 4112-8). Specifically, peripheral blood mononuclear cells (PBMCs) isolated from a normal volunteer (HLA-A*2402 positive) by Ficoll-Plaque (Pharmacia) solution were separated by adherence to a plastic tissue culture dish (Becton Dickinson) so as to enrich them as the monocyte fraction. The monocyte-enriched population was cultured in the presence of 1000 U/ml of granulocyte-macrophage colony-stimulating factor (GM-CSF) (R&D System) and 1000 U/ml of interleukin (IL)-4 (R&D System) in AIM-V Medium (Invitrogen) containing 2% heat-inactivated autologous serum (AS). After 7 days of culture, the cytokine-induced DCs were pulsed with 20 micro g/ml of each of the synthesized peptides in the presence of 3 micro g/ml of beta 2-microglobulin for 3 hr at 37 degrees C. in AIM-V Medium. The generated cells appeared to express DC-associated molecules, such as CD80, CD83, CD86 and HLA class II, on their cell surfaces (data not shown). These peptide-pulsed DCs were then inactivated by Mitomycin C (MMC) (30 micro g/ml for 30 min) and mixed at a 1:20 ratio with autologous CD8+ T cells, obtained by positive selection with CD8 Positive Isolation Kit (Dynal). These cultures were set up in 48-well plates (Corning); each well contained 1.5×10^4 peptide-pulsed DCs, 3×10^5 CD8+ T cells and 10 ng/ml of IL-7 (R&D System) in 0.5 ml of AIM-V/2% AS medium. Three days later, these cultures were supplemented with IL-2 (CHIRON) to a final concentration of 20 IU/ml. On day 7 and 14, the T cells were further stimulated with the autologous peptide-pulsed DCs. The DCs were prepared each time by the same way described above. CTL was tested against peptide-pulsed A24LCL cells after the 3rd round of peptide stimulation on day 21 (Tanaka H et al., Br J Cancer 2001 Jan. 5, 84(1): 94-9; Umano Y et al., Br J Cancer 2001 Apr. 20, 84(8): 1052-7; Uchida N et al., Clin Cancer Res 2004 Dec. 15, 10(24): 8577-86; Suda T et al., Cancer Sci 2006 May, 97(5): 411-9; Watanabe T et al., Cancer Sci 2005 August, 96(8): 498-506).
as §1

The subject of assay [3] is COS7 cells transfected with CDCA1 and HLA-A*2402. Put plainly: Specific CTL activity against target cells exogenously expressing CDCA1 and HLA-A*2402. The assay is classed as cell-based. The text has this:
The cDNA encoding an open reading frame of target genes or HLA-A24 was amplified by PCR. The PCR-amplified product was cloned into pCAGGS vector. The plasmids were transfected into COS7, which is the target genes and HLA-A24-null cell line, using lipofectamine 2000 (Invitrogen) according to the manufacturer's recommended procedures. After 2 days from transfection, the transfected cells were harvested with versene (Invitrogen) and used as the target cells (5×10^4 cells/well) for CTL activity assay.
The established CTL lines raised against these peptides were examined for their ability to recognize target cells that exogenously express CDCA1 and HLA-A*2402 molecule. Specific CTL activity against COS7 cells which transfected with both the full length of CDCA1 and HLA-A*2402 molecule gene (a specific model for the target cells that exogenously express CDCA1 and HLA-A*2402 gene) was tested using the CTL lines raised by corresponding peptide as the effecter cells. COS7 cells transfected with either full length of CDCA1 genes or HLA-A*2402 were prepared as control.

For assay [4], the system named is target cells pulsed with peptide. The assay is described as follows: IFN-gamma ELISA assay on CTL clone established by limiting dilution. It is filed as cell-based, human. The following applies: CTL clone by limiting dilution vs peptide-pulsed target cells, compared with the control. The method, then:
The dilutions were made to have 0.3, 1, and 3 CTLs/well in 96 round-bottomed micro titer plate (Nalge Nunc International). CTLs were cultured with 1×10^4 cells/well of 2 kinds of human B-lymphoblastoid cell lines, 30 ng/ml of anti-CD3 antibody, and 125 U/ml of IL-2 in a total of 150 micro 1/well of AIM-V Medium containing 5% AS. 50 micro 1/well of IL-2 were added to the medium 10 days later so to reach a final concentration of 125 U/ml IL-2. CTL activity was tested on the 14th day, and CTL clones were expanded using the same method as described above (Uchida N et al., Clin Cancer Res 2004 Dec. 15, 10(24): 8577-86; Suda T et al., Cancer Sci 2006 May, 97(5): 411-9; Watanabe T et al., Cancer Sci 2005 August, 96(8): 498-506).
as §1

Regarding “SFPRYNVAEI [SEQ ID NO: 14, 10-mer peptide derived from CDCA1, start position 5]”, the “IFN-gamma production of CTL line (ELISA)” value in assay [1] is on record as “potent IFN-gamma production”. In assay [2], the “IFN-gamma production of induced CTLs (ELISPOT)” value (“IFN-gamma production … (ELISPOT)” for short) is listed as “potent IFN-gamma production”.

With “VYGIRLEHF [SEQ ID NO: 23, 9-mer peptide derived from CDCA1, start position 56]”, the “specific CTL activity” value is reported as “high specific CTL activity” in assay [3] (CTL clone vs COS7 cells transfected with both CDCA1 and HLA-A*2402); “no significant specific CTL activity” in assay [3] (CTL clone vs target cells expressing either HLA-A*2402 or CDCA1 (controls)). Further, the “IFN-gamma production of CTL line (ELISA)” value in assay [1] is recorded as “potent IFN-gamma production”. In addition, the “IFN-gamma production of CTL clone (ELISA)” value in assay [4] is reported as “potent IFN-gamma production”. The “IFN-gamma production … (ELISPOT)” value in assay [2] is on record as “potent IFN-gamma production”.

Turning to “RYNVAEIVI [SEQ ID NO: 22, 9-mer peptide derived from CDCA1, start position 8]”, in assay [1], the “IFN-gamma production of CTL line (ELISA)” value is reported as “potent IFN-gamma production”. In assay [2], the “IFN-gamma production … (ELISPOT)” value is listed as “potent IFN-gamma production”.

Turning to “MYPHLMEGFL [SEQ ID NO: 2, 10-mer peptide derived from CDCA1, start position 74]”, the “IFN-gamma production of CTL line (ELISA)” value in assay [1] was “no specific IFN-gamma production”. In addition, the “IFN-gamma production … (ELISPOT)” value in assay [2] is given as “no specific IFN-gamma production”.

“IYMRALQIVY [SEQ ID NO: 11, 10-mer peptide derived from CDCA1, start position 48]”: the “IFN-gamma production of CTL line (ELISA)” value in assay [1] is recorded as “potent IFN-gamma production”. Moreover, the “IFN-gamma production … (ELISPOT)” value in assay [2] is “potent IFN-gamma production”.

With “KTEENSFKRL [SEQ ID NO: 4, 10-mer peptide derived from CDCA1, start position 335]”, the “IFN-gamma production of CTL line (ELISA)” value in assay [1] was “potent IFN-gamma production”. Moreover, the “IFN-gamma production … (ELISPOT)” value in assay [2] was “potent IFN-gamma production”.

With “RFLSGIINFI [SEQ ID NO: 3, 10-mer peptide derived from CDCA1, start position 119]”, the “IFN-gamma production of CTL line (ELISA)” value in assay [1] is “potent IFN-gamma production”. The “IFN-gamma production … (ELISPOT)” value in assay [2] is on record as “potent IFN-gamma production”.
